# Laboratory results taken from patent US20190224166A1, “Compositions and Methods for Treating Muscle Loss” (Augusta University Research Institute, Inc., priority 2018, published 2019).
# “Also recorded” adds a separate entry of the source.
# Legend:
# [1] = tested on: quadriceps femoris; test: Muscle mass and fiber size of quadriceps femoris ex vivo, mice treated with kynurenine for 4 weeks; type: in vivo, C57BL/6 mice; settings: young mice, kynurenine 10 mg/kg BW
# Description: (§1) This example investigated the relationship between kynurenine, a circulating tryptophan metabolite which increases with age, and markers of muscle oxidative stress. C2C12 myoblasts were treated with kynurenine in a dose-dependent manner (0, 1, 10 μM) and reactive oxygen species (“ROS”) was measured using an Amplex red assay. Human myoblasts were also treated with kynurenine (100 μM) and ROS was measured. Female C57BL/6 mice 6 months of age were treated with kynurenine (10 mg/kg BW) or with saline (vehicle control) for 4 weeks. Muscle mass and fiber size were measured from the quadriceps femoris ex vivo, and ROS was measured from paraffin-embedded muscle sections using immunostaining for 4HNE.
# [2] = tested on: human myoblasts; test: ROS in human myoblasts treated with kynurenine; type: cell-based
# Description: as §1
# [3] = tested on: quadriceps femoris; test: Muscle ROS by 4HNE immunostaining of paraffin-embedded muscle sections, mice treated with kynurenine; type: in vivo, C57BL/6 mice; settings: young mice, kynurenine 10 mg/kg BW, 4 weeks, P<0.05
# Description: as §1
# [4] = tested on: C2C12 myoblasts; test: ROS by Amplex red assay in C2C12 myoblasts treated with kynurenine; type: cell-based
# Description: as §1
# [5] = tested on: quadriceps muscle; test: Proteomic analysis of quadriceps muscle of aged mice treated with 1-methyl-D-tryptophan (Table 1, TOPPGENE enrichment); type: in vivo
# Description: (§2) Female mice 22 months of age were obtained from the National Institute on Aging and treated with saline (vehicle) or 1-methyl-D-tryptophan (1-MT, Sigma, 452483, lot#MKBZ1441V) at a low dose (10 mg/kg BW) or at a high dose (100 mg/kg BW). Mice were treated daily for 4 weeks. Treatments were administered i.p. with an injection volume of 0.2 ml following IACUC approved procedures. Mice were euthanized by CO2 overdose and muscles harvested for analysis. One quadriceps muscle was snap frozen for proteomics and the other quadriceps muscle fixed in buffered formalin for paraffin embedding and trichrome staining. The tibialis anterior was placed in PBS for amplex red assay.
# The IDO inhibitor, 1-methyl-D-tryptophan, blocks kynurenine production and reduces levels of ROS in muscle.
# [6] = tested on: tibialis anterior; test: Muscle ROS by Amplex red assay in aged mice treated with 1-methyl-D-tryptophan; type: in vivo
# Description: as §2
# [7] = aged mice, 1-methyl-D-tryptophan treatment
# [8] = aged mouse muscle after 1-methyl-D-tryptophan treatment
SMILES,"quadriceps weight relative to body weight, reduction compared to controls [1]",muscle fiber size compared to controls ([1]; P<0.01),ROS ([2]; 100 μM kynurenine),"reactive oxygen species ([2]; 10 μm kynurenine, FIG. 1B)","ROS increase based on 4HNE staining, compared to control [3]","reactive oxygen species (H2O2 concentration/protein concentration) ([4]; 1 μm and 10 μm kynurenine, FIG. 1A)","ROS increase ([4]; kynurenine at both low and high concentrations (1, 10 μM), P<0.01)","factors associated with muscle oxidative stress (proteomic analysis) [5, 7]","levels of myosin 4 (proteomic analysis) [5, 7]","factors associated with muscle degradation (ubiquitin ligases) and oxidative stress (TOPPGENE enrichment of downregulated proteins) [5, 8]","factors associated with muscle protein synthesis (TOPPGENE enrichment of upregulated proteins) [5, 8]",levels of ROS in muscle (Amplex red assay) ([6]; 1-methyl-D-tryptophan i.p. daily for 4 weeks),kynurenine production ([6]; 1-methyl-D-tryptophan treatment)
Nc1ccccc1C(=O)CC(N)C(=O)O (stereo not shown) [kynurenine],10%,significantly lower,increased,increases,20%,increases,2 fold,,,,,,
"Cn1cc(C[C@@H](N)C(=O)O)c2ccccc21 [1-methyl-D-tryptophan, reference compound]",,,,,,,,reduced; also recorded: decreases,increases,decreased levels,increased levels,decrease,blocks
